For the assay, the target named is lactoperoxidase (LPO) (Bos taurus, UniProt P80025). Put plainly: LPO inhibition, peroxidase selectivity profiling. Format: biochemical.

Structures are written as SMILES.

The record followed here is publication PMC13509954 (Antioxidants, 2026).

In turn, `Cc1ccn2c(Nc3ccc4c(c3)OCO4)c(-c3ccc(O)cc3)nc2c1` [NE-2-8] returned an IC50 of 1050 nM.

Molecule `COc1ccc(-c2nc3cc(C)ccn3c2Nc2ccc3c(c2)OCO3)cc1` [NE-2-7] yielded an IC50 of 2250 nM.

Regarding `Cc1ccc2nc(-c3cccnc3)c(Nc3ccc4c(c3)OCO4)n2c1` [NE-2-6], half-maximal inhibition (IC50) required 890 nM.
